Data on three molecules can be found in US20130345159A1, “PURIFIED CARDIOGENIN ISOMER AND RELATED METHODS” (HUYA BIOSCIENCE INTERNATIONAL LLC, priority 2010, published 2013).

“Also recorded” adds a separate entry of the source.

Data set [1] deals with mesenchymal stem cells (MSCs). Description: cardiogenic morphological transition of cultured MSCs (phase contrast microscope). Type of data set: cell-based, rat. As to conditions: for MSCs undergoing narrowing and becoming more refractive (cardiogenic morphological transition), D3 / MSCs undergoing narrowing and becoming more refractive (cardiogenic morphological transition), D7: 10 μg/ml; for MSCs undergoing narrowing and becoming more refractive (cardiogenic morphological transition), D3: treated for 3 days; for MSCs undergoing narrowing and becoming more refractive (cardiogenic morphological transition), D7: treated for 7 days; for activity in inducing cardiogenic differentiation of MSCs (in words): summary statements. As for the experimental part:
FIG. 14 presents photomicrographs that illustrate the activity of Car, HUYA-1 and HUYA-2, each 10 μg/ml, in inducing the cardiogenic morphological transition of mesenchymal stem cells (MSCs). D0, cultures of MSCs were set up before any treatment. The morphology of the MSCs was characterized by flat, irregular, low refracted and well-spread shapes (circles). D3, sample of the cultured MSCs were treated for 3 days with compounds as respectively labeled. […] D7, the cultured MSCs samples were treated for 7 days with compounds as respectively labeled. More MSCs (˜48%) in Car- and HUYA-1-treated cultures underwent narrowing and became more refractive (circles).
FIG. 15 provides a comparison, via photomicrographs, of HUYA-3 (10 μg/ml) with HUYA-4 (10 μg/ml) in inducing cardiogenic morphological transition of MSCs. Ctrl denotes the MSCs treated with vehicle (10% DMSO in equivalent volume). D0, the MSCs cultures were set before any treatment. The morphology of the MSCs was characterized by flat, irregular, low refracted and well-spread shapes (circles). D3, sample of the cultured MSCs were treated for 3 days with compounds as respectively labeled. […] D7, the cultured MSCs samples were treated for 7 days with compounds as respectively labeled. A similar amount of the MSCs (˜22%) in HUYA-4-treated cultures became narrowing and more refractive (ovals).
Testing was performed according to the procedures described in the following: The tibias/femur bones of rats were removed and the BM was flushed out of the bones with alpha IMDM culture medium. The BM was mixed well and centrifuged at 1,500 rpm for 5 minutes. The cell pellet was suspended with 3 ml culture medium, and the forming cell suspension was carefully put on 4 ml Ficoll solution, to minimize disturbance, and then was centrifuged at […] for 30 minutes. The second layer was transferred into a tube and washed twice with PBS to remove Ficoll (1,200 rpm for 5 minutes). The resulting cell pellet was resuspended in IMDM culture medium containing 10% heat-inactivated FBS (GIBCO) and 1% penicillin/streptomycin antibiotic mixture, and this was used for the tests. Non-adherent cells were discarded after 24 hours culturing. The adherent cells were cultured by changing medium every 3 days. The cells became nearly confluent after 14 days culture. To activate the cardiogenic morphology transition, the MSCs were cultured for 7 days in the presence of the HUYA-1, HUYA-2, HUYA-3, HUYA-4 or Car (10 μg/ml IMDM culture medium), respectively. The treating period-dependent morphological transition was evaluated, on a time-lapse basis, with a phase contrast microscope.

The subject of data set [2] is mesenchymal stem cells (MSCs). In words: fluorescent immunocytochemistry for cardiogenic differentiation markers Mef2a and MHC beta in treated MSCs. Type of data set: cell-based, rat. As to conditions: 10 μg/ml; for treated cells with Mef2a-positive staining (D3): treated for 3 days; for treated cells with MHC beta-positive signals (D7): treated for 7 days. Here is the method:
FIG. 16 depicts immunofluorescence staining for expression of cardiogenic differentiation markers, Mef2a (fluorescence in D3) and beta, MHC beta (fluorescence in D7). D3 and D7, the cultured MSCs samples were treated with the compounds, as labeled, for 3 and 7 days, respectively. Neg is the negative control of MSCs culture, with no use of the first antibody specific to Mef2a or MHC beta, showing negative signals of Mef2a (D3) and MHC (D7) staining Ctrl represents the cultured MSCs treated with the equivalent volume of 10% DMSO, with almost no positive Mef2a (D3) and MHC beta (D7) signals observed.
FIG. 17 depicts immunofluorescence staining for expressions of early cardiogenic differentiation marker, Mef2a (fluorescence in D3) and cardiac specific myosin heavy chain beta, MHC (fluorescence in D7). D3 and D7, the cultured MSCs samples were treated with the compounds, as labeled, for 3 and 7 days, respectively.
The method for the fluorescent-immunostaining is summarize briefly: The cultured cells were fixed with 4% paraformaldehyde in PBS for 15 minutes and permeabilized with 0.5% Triton X-100 for 15 minutes. Dilution of antibodies was as follows: rabbit polyclonal antibodies specific to rat MEF2a (1:500) and mouse monoclonal antibodies specific to MHC (1:500) (both antibodies from Abcam®). Secondary antibodies were goat anti-mouse and rabbit anti-IgG antibodies conjugated with fluorophore (FITC 495/528 and Cy5 650/667, products of Abcam®), respectively. The nuclei were stained with DAPI. Examined by fluorescent microscopy were the cardiogenic differentiation-associated morphological transition and specific marker protein expression of the cultured MSCs.

Another data set deals with GFP-MSCs. In words: differentiation of GFP-MSCs into beating cardiac myocytes in co-culture with rat cardiac myocytes. Type of data set: cell-based, mice. As to conditions: 10 μg/ml. The source says:
FIG. 18 depicts HUYA-1-induced differentiation of GFP-MSCs into beating cardiac myocytes in co-culture system. This screenshot was taken from a video showing beating GFP-positive myocytes (enclosed areas) differentiated from the GFP-MSCs, which were co-cultured with rat cardiac myocytes and fibroblasts and then treated with HUYA-1. Since the culture contained non-GFP myocytes and fibroblasts and GFP-MSCs, any beating cells with GFP-positive signals that were identified must have differentiated from GFP-MSCs.
Bone marrow GFP-MSCs were isolated from the tibias/femur bones of GFP-transgenic mice. The GFP-MSCs were co-cultured with the cardiac myocytes isolated from neonatal SD rats in the presence of HUYA-1 (10 μg/ml IMDM culture medium) to mimic the cardiac micro-environment. The cultures were investigated daily, under a fluorescent microscope, to identify beating GFP-positive cells and to gauge the morphological transition of the cultured GFP-MSCs.

Data set [3] is described as follows: solubility in cell culture medium. Type of data set: physicochemical. As to conditions: compared with HUYA-1. The source says: The DMSO concentration was increased from 5% to 10% to increase the solubility of HUYA-4.
The nature of data set [4]: stress tests of the separated cardiogenin isomers. As to conditions: storage in MTBE/IPA=50:50 or as solids at 40° C. for 24 hours.
Protocol: Stress tests were performed to determine whether the two cardiogenin isomers separated from each other are stable and not converting into each other. In particular, the two cardiogenin isomers were stressed by storage in MTBE/IPA=50:50 or as solids at 40° C. (the major isomer in solution and solid; the minor isomer only in solution) for 24 hours.
Setting [5] is: listed as cardiogenin major isomer.

For `C[C@@H]1CC[C@]2(C(=O)OC3OC(CO)C(O)C(O)C3O)CC[C@]3(C)C(=CCC4[C@@]5(C)C[C@@H](O)[C@H](O)[C@@](C)(CO)C5CC[C@]43C)C2[C@]1(C)O` (stereo partly shown) [HUYA-1, cardiogenin], the “MSCs undergoing narrowing and becoming more refractive (cardiogenic morphological transition), D3” value in data set [1] was approximately 31%. In data set [1], the “MSCs undergoing narrowing and becoming more refractive (cardiogenic morphological transition), D7” value is approximately 48%. Further, the “cultured MSCs induced into cardiogenic differentiation” value in data set [1] (cell culture, summary of FIGS. 14 and 15) is “more than 20%”. In addition, the “activity in inducing cardiogenic differentiation of MSCs (in words)” value in data set [1] is recorded as “most active compound”; in data set [1] (setting [5]), “substantially enhanced differentiation into cardiomyocytes; also recorded: active”; in data set [1] (listed as isolated cardiogenin major isomer), “biologically active”. In addition, in data set [2], the “treated cells with Mef2a-positive staining (D3)” value (from here on “treated cells … (D3)”) is listed as “approximately 15%”. Besides, the “treated cells with MHC beta-positive signals (D7)” value (shortened to “treated cells … (D7)”) in data set [2] is reported as 20%. For the same molecule, the figures for the “differentiation of MSCs into beating cardiac myocytes” value with GFP-MSCs and in the data set on GFP-MSCs (setting [5]) were “induced cardiogenic differentiation of the GFP-MSCs to form beating cardiac myocytes; also recorded: can enhance the cardiogenic differentiation of MSCs into beating cardiac myocytes” and “beating cardiomyocytes differentiate from MSCs”, respectively.
For `C[C@@H]1CC[C@]2(C(=O)O)CC[C@]3(C)C(=CCC4[C@@]5(C)C[C@@H](O)[C@H](O)[C@@](C)(CO)C5CC[C@]43C)C2[C@]1(C)O` (stereo partly shown) [HUYA-4], in data set [1], the “MSCs undergoing narrowing and becoming more refractive (cardiogenic morphological transition), D3” value is on record as approximately 20%; the “MSCs undergoing narrowing and becoming more refractive (cardiogenic morphological transition), D7” value is listed as approximately 22%; the “activity in inducing cardiogenic differentiation of MSCs (in words)” value is reported as “induced MSCs into cardiogenic differentiation”. Moreover, the “activity in inducing cardiogenic differentiation of MSCs (in words)” value in data set [1] (listed as aglycone) was “substantially enhanced differentiation into cardiomyocytes”. Besides, in data set [2], the “treated cells … (D3)” value is reported as approximately 6% and the “treated cells … (D7)” value is approximately 8%. Also, the “differentiation of MSCs into beating cardiac myocytes” value in the data set with GFP-MSCs is recorded as “beating cardiomyocytes differentiate from MSCs”. Further, in data set [3], the “solubility in cell culture medium” value was “lower solubility”.
cardiogenin [HUYA-2]: in data set [1], the “MSCs undergoing narrowing and becoming more refractive (cardiogenic morphological transition), D3” value is on record as “did not show clear morphological changes”; the “MSCs undergoing narrowing and becoming more refractive (cardiogenic morphological transition), D7” value is on record as “no significant morphological change”; the “activity in inducing cardiogenic differentiation of MSCs (in words)” value is “essentially inactive”. For the same molecule, the “activity in inducing cardiogenic differentiation of MSCs (in words)” value in data set [1] (listed as minor isomer) is “inactive”. In data set [2], the “treated cells … (D3)” value is on record as “almost no positive signals” and the “treated cells … (D7)” value was approximately 3%. Further, in data set [4], the stability under stress result was “The same picture was obtained”.
